Reference: patent US20120142682A1, “ANT[…] INHIBITING BACTERIAL MONO-ADP-RIBOSYLT[…]” (UNIVERSITY OF GUELPH, priority 2010, published 2012)
Like-named read-outs stand apart in the source and are kept apart here.

Columns and labels:
[1] = tested on: Saccharomyces cerevisiae cells expressing the catalytic domain of P. aeruginosa ExoA (ExoAc); assay: Yeast-based compound screen; type: cell-based; conditions: compound 50 μM; for Protection in Yeast: w303 strain, growth restored
[2] = target: WT ExoAc (Pseudomonas aeruginosa, UniProt P11439); assay: biochemical; type: binding, P. aeruginosa
Chain of WT ExoAc (P11439 430-638 limits assumed): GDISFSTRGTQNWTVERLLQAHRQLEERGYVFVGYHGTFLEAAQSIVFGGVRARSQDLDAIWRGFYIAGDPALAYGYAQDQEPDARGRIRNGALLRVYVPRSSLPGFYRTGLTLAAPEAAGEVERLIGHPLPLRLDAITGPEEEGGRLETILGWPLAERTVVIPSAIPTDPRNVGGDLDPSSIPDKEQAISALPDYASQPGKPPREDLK

[3] = tested on: C38 cells in the presence of 650 ng/mL of ExoA; assay: Determination of half-maximal effective concentration (EC50) in C38 cells; type: cell-based, Human; conditions: 96 h
Protocol: Cell viability was determined using the same method as the cytoprotection assay. The EC50 values were extrapolated from each corresponding line-of-best-fit (Sigmoidal function in Origin 6.1), and the average values reported±the standard deviation.

[4] = target: cholix toxin (Vibrio cholerae, UniProt Q5EK40); assay: biochemical; type: biochemical
Chain of cholix toxin (Q5EK40 33-666 limits assumed): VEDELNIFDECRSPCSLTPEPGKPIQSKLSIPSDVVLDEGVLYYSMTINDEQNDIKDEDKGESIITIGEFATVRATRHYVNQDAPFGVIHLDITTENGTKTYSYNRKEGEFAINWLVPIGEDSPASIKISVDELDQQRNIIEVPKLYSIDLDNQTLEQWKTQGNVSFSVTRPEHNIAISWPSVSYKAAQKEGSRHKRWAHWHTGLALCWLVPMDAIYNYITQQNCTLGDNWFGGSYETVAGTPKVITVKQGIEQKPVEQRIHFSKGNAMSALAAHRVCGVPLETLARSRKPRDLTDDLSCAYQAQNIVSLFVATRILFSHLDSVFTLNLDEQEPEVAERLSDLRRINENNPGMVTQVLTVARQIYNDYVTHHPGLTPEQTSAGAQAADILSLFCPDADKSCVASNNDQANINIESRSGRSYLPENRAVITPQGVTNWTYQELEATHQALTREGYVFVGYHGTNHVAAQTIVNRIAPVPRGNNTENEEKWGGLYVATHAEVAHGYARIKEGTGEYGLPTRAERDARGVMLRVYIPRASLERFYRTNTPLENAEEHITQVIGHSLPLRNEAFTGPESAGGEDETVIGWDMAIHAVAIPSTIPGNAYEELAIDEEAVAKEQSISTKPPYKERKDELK

[5] = tested on: ExoA intoxicated C38 cells; type: cell-based, Human

Compound | Protection in Yeast [1] | protection of C38 cells against ExoA (in words) [5] | further results
O=c1cc(NCCNc2cc(=O)oc3ccccc23)c2ccccc2o1 [Compound V1] | − (Compounds showing less than 5% growth were scored (−)) |  | 
O=C1NCCn2c(CCc3ccc(CN4CCCC4)cc3)nc3cccc1c32 [Compound P5] | − (Compounds showing less than 5% growth were scored (−)) |  | Kd ([2]; read-out: Kd): 750 ± 10 nM; EC50 ([3]; 650 ng/ml ExoA (10-times LD50), NAP and V30 with 0.5% DMSO): 16700 ± 1900 nM; IC50 ([4]; read-out: IC50): 4460 nM; Ki ([4]; read-out: Ki): 582 ± 124 nM
CN1CCN(CCCNc2c(N)c(=O)oc3ccccc23)CC1 [Compound V23] | ++ (25-50% (++)) | moderate activity | LD50 of ExoA in the presence of compound [5]: 199 ± 30 ng/mL; protection in yeast against ExoAc (in words) [1]: modest protection
Cc1cc(Nc2ccc(O)cc2)c2ccccc2n1.Cl [Compound V16] | − (Compounds showing less than 5% growth were scored (−)) | Weak protection | 
Cc1[nH]c2ccccc2c1CN1CCN(c2ccccn2)CC1 [Compound V14] | − (Compounds showing less than 5% growth were scored (−)) |  | 
Nc1c(NCCCN2CCOCC2)c2ccccc2oc1=O [Compound V9] | − (Compounds showing less than 5% growth were scored (−)) | moderate activity | 
O=C(NCCNc1ccnc2cc(Cl)ccc12)c1ccccc1F [Compound V4] | − (Compounds showing less than 5% growth were scored (−)) |  | 
CN(C)CC(=O)Nc1ccc2[nH]c(=O)c3ccccc3c2c1.Cl [PJ34, N-(6-oxo-5,6-dihydrophenanthridin-2-yl)-(N,N-dimethylamino)acetamide hydrochloride, reference compound] | − (Compounds showing less than 5% growth were scored (−)) |  | Kd [2]: 820 ± 54 nM; IC50 [4]: 280 ± 70 nM; Ki [4]: 37 ± 9 nM
O=C(CCCC(=O)Nc1ccc(F)c(Cl)c1)Nc1ccc(F)c(Cl)c1 [Compound V5] | toxic (any compound that reduced cell viability to less than 30%) |  | 
COc1ccc(NC(=O)CC2C(=O)N(c3ccc(Cl)cc3)C(=S)N2CCc2ccncc2)cc1 (stereo not drawn) [Compound V18] | − (Compounds showing less than 5% growth were scored (−)) |  | 
CCN(CC)CCn1c(NCc2ccc(F)cc2)nc2ccccc21.Cl.Cl [Compound V24] | − (Compounds showing less than 5% growth were scored (−)) | moderate activity | LD50 of ExoA in the presence of compound [5]: 238 ± 16 ng/mL
CN(C)CCNc1c(N)c(=O)oc2ccccc12 [Compound V22] | − (Compounds showing less than 5% growth were scored (−)) | Weak protection | 
CCn1c(SCc2nc3ccccc3c(=O)[nH]2)nnc1-c1ccc(Cl)cc1 [Compound V15] | + (5-25% (+)) | moderate activity | LD50 of ExoA in the presence of compound [5]: 208 ± 41 ng/mL; protection in yeast against ExoAc (in words) [1]: weak protection
Cn1c(=O)[nH]c(=O)c2c1nc(N1CCCCC1)n2CCCSc1nc2ccccc2s1 [Compound V19] | − (Compounds showing less than 5% growth were scored (−)) |  | 
COc1ccc(Nc2nc(N3CCN(CCO)CC3)nc3ccccc23)c(OC)c1 [Compound V8] | − (Compounds showing less than 5% growth were scored (−)) |  | 
CCOC(=O)c1cnc2ccc(OCC)cc2c1Nc1ccc(C)cc1C [Compound V28] | toxic (any compound that reduced cell viability to less than 30%) |  | 
CC(=O)Nc1c(Nc2ccccc2)c2ccccc2oc1=O [Compound V31] | + (5-25% (+)) | Weak protection | protection in yeast against ExoAc (in words) [1]: weak protection
CC1(C)C(=O)N(CC(O)Cn2cnc3ccccc32)C(=O)N1CN1C(=O)N(CC(O)Cn2cnc3ccccc32)C(=O)C1(C)C (stereo not drawn) [Compound V11] | − (Compounds showing less than 5% growth were scored (−)) | Weak protection | 
Cc1cccc(Cn2c(N3CCCCC3C)nc3c2c(=O)[nH]c(=O)n3C)c1 (stereo not drawn) [Compound V10] | − (Compounds showing less than 5% growth were scored (−)) | Weak protection | 
CC1=C(C)C2C(=O)CC(SCC(=O)NCCO)=CC2S1 (stereo not drawn) [Compound V30] | − (Compounds showing less than 5% growth were scored (−)) | excellent protection | Kd [2]: 931 ± 74 nM; protection of C38 cells from lethal action of high dose ExoA (morphology) [5]: completely protected; EC50 ([3]; Homo sapiens): 8800 ± 500 nM; IC50 [4]: 2810 nM; Ki [4]: 367 ± 3 nM
